The values that follow come from PubChem BioAssay (NCI).

What all share (experiment): growth of human tumour cells (NCI), 48 h
Experiment [1] has as its system SK-MEL-2 melanoma.
In experiment [2] the test system is EKVX NSCLC.
Experiment [3] relates to NCI-H522 lung.
The test system of experiment [4] is A549 NSCLC.
Experiment [5] concerns ACHN renal.
Experiment [6] relates to SF-268 CNS.
Experiment [7] has as its system SW-620 colon.
The subject of experiment [8] is LOX IMVI melanoma.
Experiment [9] has as its system MOLT-4 leukemia.
Experiment [10] has as its system K-562 leukemia.

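Growth conditions: 96-well plates. Treatment: test compound, 48 hours, 5 concentrations. Analysis: linear interpolation between bracketing concentrations; unreached endpoints set to highest concentration. At the GI50, growth is halved. TGI: concentration producing complete growth inhibition.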 Where only a bound is given, the exact number is not on record here.

With `Cn1cnc([N+](=O)[O-])c1Sc1nccn1-c1ccccc1`, the TGI in [1] is 99.3 µM; in experiment [2], more than 100 µM; in [3], 24.5 µM; in experiment [4], more than 100 µM; in [5] it was more than 100 µM; in [6], more than 100 µM. The TGI is more than 100 µM in [7], 46.9 µM in [8], 74.1 µM in experiment [9] and more than 100 µM in experiment [10].

As for `CC1OC(n2ccc3ccc([N+](=O)[O-])cc32)C(O)C(O)C1O` (centres undefined), the TGI in experiment [1], in experiment [2], in experiment [3], in experiment [4], in [5] and in experiment [6] was more than 100 µM in each case. Besides, the TGI in [7], in [8], in experiment [9] and in experiment [10] was more than 100 µM each time.

On to `COc1cc(C)cc(C(=O)OCc2ccccc2)c1C1=C(Cl)C(=O)C(Cl)=CC1=O`, for which the TGI is more than 10 µM in experiment [1]; more than 10 µM in [2]; 3.69 µM in experiment [3]; more than 10 µM in experiment [4]; more than 10 µM in [5]; more than 10 µM in experiment [6]. For the same compound, the TGI was more than 10 µM in [7], more than 10 µM in [8], 5.29 µM in [9] and 5.37 µM in experiment [10].

As for `COc1ccc(/C=C2\C(=O)Nc3ccccc32)cc1OC`, the TGI in experiment [1], in experiment [2], in experiment [3], in experiment [4], in experiment [5] and in experiment [6] was more than 100 µM in each case. Further, the TGI in experiment [7], in experiment [8], in experiment [9] and in experiment [10] was more than 100 µM each time.

Consider `Cc1cc2c(=O)cc(-c3ccc(Cl)c(Cl)c3)oc2c(C(=O)O)c1C`, for which the TGI in [1], in experiment [2], in experiment [3], in [4], in experiment [5] and in experiment [6] was more than 100 µM in each case. For the same compound, the TGI in experiment [7], in experiment [8], in [9] and in [10] was more than 100 µM each time.

Take `OCC(O)COc1ccc(F)cc1` (centres undefined): the TGI in experiment [1], in experiment [2], in experiment [3], in [4], in [5] and in experiment [6] was more than 100 µM in each case. The TGI in experiment [7], in [8], in experiment [9] and in [10] was more than 100 µM each time.

For `O=P1(O)c2ccccc2CSCc2ccccc21`, the TGI in experiment [1], in experiment [2], in experiment [3], in experiment [4], in experiment [5] and in [6] was more than 100 µM in each case. Also, the TGI in experiment [7], in experiment [8], in [9] and in experiment [10] was more than 100 µM in each case.

As to `CCOC(=O)Nc1ccc2c3c(cccc13)-c1ccccc1-2`, the GI50 in [1] is more than 100 µM; in experiment [2], 2.18 µM; in [3], more than 100 µM; in experiment [4], 6.03 µM; in experiment [5], 9.73 µM; in [6], 33.3 µM. The GI50 was 3.92 µM in experiment [7], 4.77 µM in experiment [8], 8.5 µM in experiment [9] and 4.12 µM in experiment [10]. Also, the TGI in experiment [1], in experiment [2], in experiment [3], in experiment [4], in experiment [5] and in experiment [6] was more than 100 µM throughout. For the same compound, the TGI in experiment [7], in experiment [8], in experiment [9] and in experiment [10] was more than 100 µM each time.

As to `CN(CCNc1ccc(C(=N)N)cc1)c1ccc(C(=N)N)cc1`, the GI50 in experiment [1] is 18 µM; in experiment [2], 20 µM; in [3], 27.5 µM; in experiment [4], 0.249 µM; in experiment [5], more than 100 µM; in experiment [6], 37.8 µM. Also, the GI50 in experiment [7] was more than 100 µM; in [8], more than 100 µM; in [9], more than 100 µM; in experiment [10] it was 27.6 µM. The TGI in [1], in experiment [2], in experiment [3], in experiment [4], in experiment [5] and in experiment [6] was more than 100 µM throughout. The TGI in experiment [7], in experiment [8], in experiment [9] and in [10] was more than 100 µM throughout.

In the case of `CC(C)[C@]12O[C@H]1[C@@H]1O[C@]13[C@]1(O[C@H]1C[C@H]1C4=C(CC[C@@]13C)C(=O)OC4)[C@@H]2OC(=O)OC(C)(C)C`, the GI50 is 0.0185 µM in experiment [1]; 0.0573 µM in [2]; 0.0137 µM in experiment [3]; 0.0206 µM in [4]; 0.0107 µM in experiment [5]; 0.0251 µM in [6]. The GI50 in experiment [7] was less than 0.01 µM; in [8] it was less than 0.01 µM; in experiment [9], 0.0156 µM; in [10] it was 0.0199 µM. The TGI in [1] is 0.0603 µM; in experiment [2], more than 100 µM; in experiment [3], 0.0635 µM; in experiment [4], more than 100 µM; in experiment [5], more than 100 µM; in [6], 0.26 µM. In addition, the TGI in experiment [7], in experiment [8] and in experiment [10] was more than 100 µM throughout.

As for `Cc1cc2c(=O)cc(-c3ccc(C(=O)O)cc3)oc2c(C(N)=O)c1C`, the TGI in experiment [1], in experiment [2], in experiment [3], in [4], in experiment [5] and in experiment [6] was more than 100 µM throughout. Moreover, the TGI in experiment [7], in experiment [8], in [9] and in experiment [10] was more than 100 µM in each case.
